Source: ChEMBL document CHEMBL5357003, “A Simple Chiral 1H NMR Method for the Discrimination of (R)- and (S)-Cannabichromene in Complex Natural Mixtures and Their Effects on TRPA1 Activity” (J Nat Prod, 2024)
Values after ≈ are worked out from the molar mass of the structure shown. Active and inactive are the calls of the source. No cut-off for these calls is given here.

Assays:
[1] = Cytotoxicity against human T24 cells by XTT assay; assay type: toxicity, cell-based, T-24
[2] = biological target: Transient receptor potential cation channel subfamily A member 1 (Rattus norvegicus, UniProt Q6RI86); assay: Agonist activity at rat TRPA1 expressed in HEK293 cells; assay type: cell-based
Transient receptor potential cation channel subfamily A member 1, sequence (Q6RI86 whole entry): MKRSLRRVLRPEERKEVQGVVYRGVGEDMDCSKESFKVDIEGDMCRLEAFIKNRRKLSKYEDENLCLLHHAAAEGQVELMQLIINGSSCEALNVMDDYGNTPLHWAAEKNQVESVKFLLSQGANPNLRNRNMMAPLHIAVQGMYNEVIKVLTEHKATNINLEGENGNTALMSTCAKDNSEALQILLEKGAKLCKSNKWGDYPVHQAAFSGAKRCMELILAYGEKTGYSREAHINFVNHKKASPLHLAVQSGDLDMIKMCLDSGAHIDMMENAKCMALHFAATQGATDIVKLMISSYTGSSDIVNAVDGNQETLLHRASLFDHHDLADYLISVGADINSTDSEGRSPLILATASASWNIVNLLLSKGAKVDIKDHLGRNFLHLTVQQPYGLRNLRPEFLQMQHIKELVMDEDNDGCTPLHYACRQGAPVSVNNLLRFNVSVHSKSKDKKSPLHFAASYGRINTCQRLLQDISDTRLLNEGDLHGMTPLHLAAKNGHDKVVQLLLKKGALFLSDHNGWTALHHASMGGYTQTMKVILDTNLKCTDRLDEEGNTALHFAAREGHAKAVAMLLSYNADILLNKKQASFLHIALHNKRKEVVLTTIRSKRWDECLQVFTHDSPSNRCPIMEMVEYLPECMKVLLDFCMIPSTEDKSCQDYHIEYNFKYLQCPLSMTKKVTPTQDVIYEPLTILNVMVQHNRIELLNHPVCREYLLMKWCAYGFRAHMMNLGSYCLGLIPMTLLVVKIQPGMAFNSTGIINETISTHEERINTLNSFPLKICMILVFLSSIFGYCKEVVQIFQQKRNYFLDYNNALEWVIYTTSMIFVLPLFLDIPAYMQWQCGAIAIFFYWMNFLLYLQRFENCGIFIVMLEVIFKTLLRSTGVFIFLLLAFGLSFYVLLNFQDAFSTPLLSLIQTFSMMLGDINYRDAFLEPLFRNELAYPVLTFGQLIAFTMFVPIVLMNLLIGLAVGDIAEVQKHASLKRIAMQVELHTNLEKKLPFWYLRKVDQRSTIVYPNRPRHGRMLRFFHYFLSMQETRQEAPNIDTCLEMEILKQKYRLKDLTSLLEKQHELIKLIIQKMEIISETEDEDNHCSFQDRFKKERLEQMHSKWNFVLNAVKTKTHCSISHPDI

[3] = biological target: Transient receptor potential cation channel subfamily A member 1 (Homo sapiens) (UniProt O75762); assay: Agonist activity at human TRPA1 expressed in HEK293E cells assessed as calcium mobilization measured every 2 sec for 150 sec by microplate reader analysis; assay type: cell-based; conditions: filed as agonist
Transient receptor potential cation channel subfamily A member 1 (Homo sapiens), sequence (O75762 whole entry): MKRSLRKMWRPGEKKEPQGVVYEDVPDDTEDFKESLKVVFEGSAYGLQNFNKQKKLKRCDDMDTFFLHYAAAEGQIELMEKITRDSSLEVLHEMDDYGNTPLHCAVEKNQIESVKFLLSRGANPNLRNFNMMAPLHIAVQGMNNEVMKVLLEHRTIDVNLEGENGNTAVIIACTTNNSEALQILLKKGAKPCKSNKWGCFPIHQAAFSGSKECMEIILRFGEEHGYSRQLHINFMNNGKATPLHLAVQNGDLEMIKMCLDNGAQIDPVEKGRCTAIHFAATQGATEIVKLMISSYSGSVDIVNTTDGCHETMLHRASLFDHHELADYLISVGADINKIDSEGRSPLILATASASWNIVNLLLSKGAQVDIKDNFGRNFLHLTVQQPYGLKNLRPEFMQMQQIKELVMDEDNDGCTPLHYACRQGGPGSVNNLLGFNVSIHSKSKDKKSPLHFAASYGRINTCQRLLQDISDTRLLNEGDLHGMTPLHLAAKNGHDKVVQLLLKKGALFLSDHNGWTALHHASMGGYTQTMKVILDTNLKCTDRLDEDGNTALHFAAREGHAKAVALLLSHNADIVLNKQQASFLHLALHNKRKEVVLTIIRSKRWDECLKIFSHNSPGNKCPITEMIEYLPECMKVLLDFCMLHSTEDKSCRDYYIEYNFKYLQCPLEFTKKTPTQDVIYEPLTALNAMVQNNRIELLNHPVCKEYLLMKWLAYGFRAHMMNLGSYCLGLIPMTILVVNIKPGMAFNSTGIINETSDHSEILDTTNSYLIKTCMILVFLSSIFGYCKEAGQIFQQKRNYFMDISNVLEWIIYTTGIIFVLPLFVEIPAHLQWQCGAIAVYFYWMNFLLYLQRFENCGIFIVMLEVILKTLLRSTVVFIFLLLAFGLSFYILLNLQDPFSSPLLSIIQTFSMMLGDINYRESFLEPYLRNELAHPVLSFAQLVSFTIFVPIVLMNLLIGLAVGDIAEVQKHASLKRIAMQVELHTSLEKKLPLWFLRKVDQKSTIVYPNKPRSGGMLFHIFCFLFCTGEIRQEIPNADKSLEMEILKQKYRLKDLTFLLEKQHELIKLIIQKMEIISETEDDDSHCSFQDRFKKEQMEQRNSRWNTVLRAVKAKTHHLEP

[4] = biological target: Transient receptor potential cation channel subfamily A member 1 (Rattus norvegicus) (UniProt Q6RI86); assay: Agonist activity at rat TRPA1 expressed in HEK293E cells assessed as calcium mobilization measured every 2 sec for 150 sec by microplate reader analysis; assay type: cell-based; conditions: filed as agonist
Transient receptor potential cation channel subfamily A member 1 (Rattus norvegicus), sequence (Q6RI86 whole entry): as the sequence (Q6RI86 whole entry) above

Row | Structure (SMILES) | IC50 [1] | EC50 [2] | Activity [3] | Activity [4]
1 | CCCCCc1cc(O)c2c(c1)OC(C)(C)[C@@H]1CCC(C)=C[C@@H]21 [DRONABINOL] | 13 µg/mL (≈ 41.5 µM) |  |  | 
2 | CCCCCc1cc(O)c2c(c1)OC(C)(CCC=C(C)C)C=C2 (racemic) [CANNABICHROMENE] | 13 µg/mL (≈ 41.5 µM) | 90 nM |  | 
3 | CCCCCc1cc(O)c2c(c1)O[C@@](C)(CCC=C(C)C)C=C2 |  |  | Active | Active
4 | CCCCCc1cc(O)c2c(c1)O[C@](C)(CCC=C(C)C)C=C2 |  |  | Active | Active
